What was measured:
[1] = biological target: T1, human Nav1.7 channels stably expressed in HEK 293 cells (Homo sapiens, UniProt Q15858); assay: PatchXpress 7000 automated patch-clamp, sodium current; type: cell-based; conditions: 22° C., read-out: potency for the Nav 1.7 sodium ion channel (as measured by PatchXpress)
T1 construct: expressed in transfected cells
Excerpt: (§1) To measure state and use-dependent sodium channel inhibition, test compounds were further characterized in an automated PatchXpress® assay (Molecular Devices). Two voltage-clamp protocols were used. 1) Use-dependent protocol: Cells were held at a membrane potential 20 mV negative to the potential at which ˜50% of the channels are inactivated (V0.5 inact). A train of 30 ms depolarizations to −20 mV was applied to the cells expressing Nav1.7 at a frequency of 10 Hz. […] Data was collected in the absence and presence of drug, and after drug washout. 2) A double-pulse protocol was used to measure inactivated state block. Cells were held at a potential 20 mV negative to V0.5 inact. A 8000 ms pre-pulse 7 mV positive to V0.5 inact was given followed by a hyperpolarizing 2 ms pulse to −120 mV and a 20 ms test pulse to −20 mV. Protocol was applied to cells in the absence, presence of compound and after washout. The temperature of PatchXpress instruments was maintained at 22° C. The following recording solutions were used. Internal solution (mM): 30 CsCl, 5 HEPES, 10 EGTA, 120 CsF, 5 NaF, 2MgCl2, pH=7.3 with CsOH, 324 mosmo. External solution (mM): 120 NMDG, 40 NaCl, 1 KCl, 0.5 MgCl2, 5 HEPES, 2.7 CaCl2, pH=7.5 with NMDG-OH.
(§2) For all electrophysiology experiments, offline analysis was used to correct for current rundown and to determine percent inhibition as a function of drug concentration. IC50 values were determined by fitting to the Hill equation.

[2] = biological target: T2, human Nav1.5 channels stably expressed in HEK 293 cells (Homo sapiens, UniProt Q14524); assay: as above; type: cell-based; conditions: selectivity over Nav1.5
T2 construct: expressed in transfected cells
T2 sequence (Q14524 whole entry): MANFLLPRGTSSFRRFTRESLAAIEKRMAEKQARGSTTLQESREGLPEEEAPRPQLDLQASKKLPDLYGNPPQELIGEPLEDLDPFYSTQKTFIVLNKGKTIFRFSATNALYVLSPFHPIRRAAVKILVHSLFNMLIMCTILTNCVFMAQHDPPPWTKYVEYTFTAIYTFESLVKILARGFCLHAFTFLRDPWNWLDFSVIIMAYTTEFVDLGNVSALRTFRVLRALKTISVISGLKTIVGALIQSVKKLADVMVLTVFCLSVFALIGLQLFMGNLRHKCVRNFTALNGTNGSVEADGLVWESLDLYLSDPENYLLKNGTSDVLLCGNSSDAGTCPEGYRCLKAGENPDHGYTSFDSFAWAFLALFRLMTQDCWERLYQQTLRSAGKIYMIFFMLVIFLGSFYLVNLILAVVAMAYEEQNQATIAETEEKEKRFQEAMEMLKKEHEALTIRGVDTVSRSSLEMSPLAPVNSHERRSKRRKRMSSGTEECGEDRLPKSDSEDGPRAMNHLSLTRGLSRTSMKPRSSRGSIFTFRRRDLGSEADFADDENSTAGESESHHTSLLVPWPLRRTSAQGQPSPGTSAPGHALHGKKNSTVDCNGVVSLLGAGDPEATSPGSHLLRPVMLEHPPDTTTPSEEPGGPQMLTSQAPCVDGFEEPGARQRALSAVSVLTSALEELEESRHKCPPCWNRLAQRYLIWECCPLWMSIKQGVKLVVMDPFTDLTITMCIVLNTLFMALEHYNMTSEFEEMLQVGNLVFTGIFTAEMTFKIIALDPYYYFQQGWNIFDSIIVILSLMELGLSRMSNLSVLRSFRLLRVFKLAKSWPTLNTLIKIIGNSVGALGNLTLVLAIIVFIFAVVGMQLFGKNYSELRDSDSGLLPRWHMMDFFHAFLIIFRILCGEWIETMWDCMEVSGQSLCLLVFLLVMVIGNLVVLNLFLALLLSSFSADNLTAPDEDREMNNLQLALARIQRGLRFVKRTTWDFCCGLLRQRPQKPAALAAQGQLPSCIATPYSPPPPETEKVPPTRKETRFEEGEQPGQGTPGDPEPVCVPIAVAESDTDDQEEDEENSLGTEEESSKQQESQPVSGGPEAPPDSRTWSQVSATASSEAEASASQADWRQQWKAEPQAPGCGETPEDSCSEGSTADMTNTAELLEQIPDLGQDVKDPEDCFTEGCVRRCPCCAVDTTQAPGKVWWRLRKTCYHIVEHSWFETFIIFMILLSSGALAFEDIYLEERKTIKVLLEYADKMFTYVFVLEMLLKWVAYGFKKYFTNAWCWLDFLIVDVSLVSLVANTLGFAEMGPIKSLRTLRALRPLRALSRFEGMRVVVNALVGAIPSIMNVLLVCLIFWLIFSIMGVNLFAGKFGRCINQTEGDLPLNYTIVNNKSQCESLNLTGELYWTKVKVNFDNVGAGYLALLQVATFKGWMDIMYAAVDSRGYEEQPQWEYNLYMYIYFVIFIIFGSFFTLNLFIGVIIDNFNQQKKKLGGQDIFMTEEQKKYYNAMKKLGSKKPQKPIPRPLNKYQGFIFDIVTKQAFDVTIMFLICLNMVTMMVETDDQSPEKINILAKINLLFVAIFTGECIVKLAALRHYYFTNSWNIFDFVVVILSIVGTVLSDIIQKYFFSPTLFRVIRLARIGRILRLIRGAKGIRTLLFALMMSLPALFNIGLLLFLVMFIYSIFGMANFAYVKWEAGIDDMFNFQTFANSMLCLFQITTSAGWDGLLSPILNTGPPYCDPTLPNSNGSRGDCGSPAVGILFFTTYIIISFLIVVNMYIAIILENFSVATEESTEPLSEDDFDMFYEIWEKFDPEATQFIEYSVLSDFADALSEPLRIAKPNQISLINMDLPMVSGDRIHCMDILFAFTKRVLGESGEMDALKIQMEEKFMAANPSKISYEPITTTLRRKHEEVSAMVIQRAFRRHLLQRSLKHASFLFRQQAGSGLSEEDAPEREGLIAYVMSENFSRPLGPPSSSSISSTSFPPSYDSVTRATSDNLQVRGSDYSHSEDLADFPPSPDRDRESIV
Excerpt: as §1, §2

T1 sequence (Q15858 whole entry): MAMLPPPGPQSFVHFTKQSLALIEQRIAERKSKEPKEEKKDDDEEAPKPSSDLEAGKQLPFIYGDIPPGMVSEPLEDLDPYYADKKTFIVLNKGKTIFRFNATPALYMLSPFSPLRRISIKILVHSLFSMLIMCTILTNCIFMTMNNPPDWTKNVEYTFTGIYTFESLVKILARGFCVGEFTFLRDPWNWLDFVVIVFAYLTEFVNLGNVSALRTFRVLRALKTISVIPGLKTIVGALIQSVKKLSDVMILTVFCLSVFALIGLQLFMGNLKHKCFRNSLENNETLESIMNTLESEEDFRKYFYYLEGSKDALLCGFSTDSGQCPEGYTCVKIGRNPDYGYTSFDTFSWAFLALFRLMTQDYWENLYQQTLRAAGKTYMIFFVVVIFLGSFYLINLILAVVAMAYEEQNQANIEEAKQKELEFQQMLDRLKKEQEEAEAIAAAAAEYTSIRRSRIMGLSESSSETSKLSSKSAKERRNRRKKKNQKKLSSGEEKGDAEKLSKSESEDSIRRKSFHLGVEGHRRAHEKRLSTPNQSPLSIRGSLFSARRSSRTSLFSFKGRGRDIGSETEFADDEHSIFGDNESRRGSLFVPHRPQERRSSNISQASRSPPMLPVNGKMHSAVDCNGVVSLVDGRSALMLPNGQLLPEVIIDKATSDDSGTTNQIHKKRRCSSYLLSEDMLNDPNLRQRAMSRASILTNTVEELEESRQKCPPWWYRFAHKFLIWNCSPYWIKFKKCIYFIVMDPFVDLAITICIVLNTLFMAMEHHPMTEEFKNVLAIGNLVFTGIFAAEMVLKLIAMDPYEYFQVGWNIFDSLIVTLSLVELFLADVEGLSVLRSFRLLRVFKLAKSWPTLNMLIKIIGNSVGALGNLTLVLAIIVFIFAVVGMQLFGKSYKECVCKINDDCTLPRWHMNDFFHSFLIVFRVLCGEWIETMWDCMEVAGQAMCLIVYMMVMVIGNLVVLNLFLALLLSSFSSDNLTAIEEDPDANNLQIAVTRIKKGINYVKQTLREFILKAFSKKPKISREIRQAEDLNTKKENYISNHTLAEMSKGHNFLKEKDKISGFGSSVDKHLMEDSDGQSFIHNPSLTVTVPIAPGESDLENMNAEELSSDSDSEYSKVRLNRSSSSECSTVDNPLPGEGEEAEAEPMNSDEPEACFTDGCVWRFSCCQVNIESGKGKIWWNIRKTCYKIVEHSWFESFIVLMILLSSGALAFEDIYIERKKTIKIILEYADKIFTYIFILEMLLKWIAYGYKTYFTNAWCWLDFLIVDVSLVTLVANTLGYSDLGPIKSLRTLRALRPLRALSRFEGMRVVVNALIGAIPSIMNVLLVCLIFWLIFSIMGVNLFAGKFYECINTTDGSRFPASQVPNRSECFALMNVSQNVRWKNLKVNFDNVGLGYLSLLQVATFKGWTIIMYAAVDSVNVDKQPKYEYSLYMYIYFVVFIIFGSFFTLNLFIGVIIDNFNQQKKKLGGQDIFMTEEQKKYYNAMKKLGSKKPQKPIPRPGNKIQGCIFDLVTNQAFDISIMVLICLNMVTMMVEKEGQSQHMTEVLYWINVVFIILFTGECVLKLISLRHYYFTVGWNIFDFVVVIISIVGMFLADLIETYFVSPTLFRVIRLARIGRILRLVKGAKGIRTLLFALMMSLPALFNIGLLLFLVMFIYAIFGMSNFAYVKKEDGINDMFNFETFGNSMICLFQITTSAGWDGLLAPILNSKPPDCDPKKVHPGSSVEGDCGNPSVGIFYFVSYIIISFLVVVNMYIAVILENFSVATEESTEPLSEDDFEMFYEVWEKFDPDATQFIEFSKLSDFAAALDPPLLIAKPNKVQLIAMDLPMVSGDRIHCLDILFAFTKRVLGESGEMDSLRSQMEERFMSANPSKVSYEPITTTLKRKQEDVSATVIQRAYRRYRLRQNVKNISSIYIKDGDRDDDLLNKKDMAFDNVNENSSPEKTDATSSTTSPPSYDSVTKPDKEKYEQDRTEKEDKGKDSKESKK

## CC(c1cccc2c1CNCC2)n1c(=O)oc2cc(S(=O)(=O)Nc3ncns3)c(Cl)cc21 (racemic) [Compound 34-7, (+/−)-5-chloro-2-oxo-3-[1-(1,2,3,4-tetrahydroisoquinolin-8-yl)ethyl]-N-1,2,4-thiadiazol-5-yl-2,3-dihydro-1,3-benzoxazole-6-sulfonamide]
[1]
  IC50: 565 nM
[2]
  ratio of Nav 1.5:Nav 1.7 potency, determined by PatchXpress measurement: 129

## CC(c1cccc2c1CN(S(C)(=O)=O)CC2)n1c(=O)oc2cc(S(=O)(=O)Nc3ncns3)c(Cl)cc21 (racemic) [Compound 36-2, (+/−)-5-chloro-3-{1-[2-(methylsulfonyl)-1,2,3,4-tetrahydroisoquinolin-8-yl]ethyl}-2-oxo-N-1,2,4-thiadiazol-5-yl-2,3-dihydro-1,3-benzoxazole-6-sulfonamide]
[1]
  IC50: 334 nM
[2]
  ratio of Nav 1.5:Nav 1.7 potency, determined by PatchXpress measurement: 13

## O=c1oc2cc(S(=O)(=O)Nc3nccs3)c(F)cc2n1Cc1cccc2c1CNCC2F (racemic) [Compound 43-26, (+/-)-5-fluoro-3-[(4-fluoro-1,2,3,4-tetrahydroisoquinolin-8-yl)methyl]-2-oxo-N-1,3-thiazol-2-yl-2,3-dihydro-1,3-benzoxazole-6-sulfonamide]
[1]
  IC50: 141 nM
[2]
  ratio of Nav 1.5:Nav 1.7 potency, determined by PatchXpress measurement: 150

## COC(=O)NC1CCc2cccc(Cn3c(=O)oc4cc(S(=O)(=O)Nc5ncns5)c(F)cc43)c2C1 (single isomer, unassigned) [Compound 23-1, methyl (8-((6-(N-(1,2,4-thiadiazol-5-yl)sulfamoyl)-5-fluoro-2-oxobenzo[d]oxazol-3(2H)-yl)methyl)-1,2,3,4-tetrahydronaphthalen-2-yl)carbamate]
[1]
  IC50: 122 nM
[2]
  ratio of Nav 1.5:Nav 1.7 potency, determined by PatchXpress measurement: 71

## CC(=O)OCC(=O)NC1CCc2cccc(Cn3c(=O)oc4cc(S(=O)(=O)Nc5ncns5)c(F)cc43)c2C1 (single isomer, unassigned) [Compound 23-4, (R or S)-2-[(8-{[5-fluoro-2-oxo-6-(1,2,4-thiadiazol-5-ylsulfamoyl)-1,3-benzoxazol-3(2H)-yl]methyl}-1,2,3,4-tetrahydronaphthalen-2-yl)amino]-2-oxoethyl acetate]
[1]
  IC50: 310 nM
[2]
  ratio of Nav 1.5:Nav 1.7 potency, determined by PatchXpress measurement: 97

## O=c1oc2cc(S(=O)(=O)Nc3ncns3)c(F)cc2n1Cc1cccc2c1CC(N1CCS(=O)(=O)CC1)CC2 (single isomer, unassigned) [Compound 23-6, (R or S)-3-{[7-(1,1-dioxidothiomorpholin-4-yl)-5,6,7,8-tetrahydronaphthalen-1-yl]methyl}-5-fluoro-2-oxo-N-1,2,4-thiadiazol-5-yl-2,3-dihydro-1,3-benzoxazole-6-sulfonamide]
[1]
  IC50: 206 nM
[2]
  ratio of Nav 1.5:Nav 1.7 potency, determined by PatchXpress measurement: 146

## NC1CCc2cccc(Cn3c(=O)oc4cc(S(=O)(=O)Nc5ncns5)ccc43)c2C1 (single isomer, unassigned) [Compound 23-10, (R or S)-3-[(7-amino-5,6,7,8-tetrahydronaphthalen-1-yl)methyl]-2-oxo-N-1,2,4-thiadiazol-5-yl-2,3-dihydro-1,3-benzoxazole-6-sulfonamide]
[1]
  IC50: 179 nM
[2]
  ratio of Nav 1.5:Nav 1.7 potency, determined by PatchXpress measurement: 167

## NC1CCc2cccc(Cn3c(=O)oc4cc(S(=O)(=O)Nc5ncns5)ccc43)c2C1 (single isomer, unassigned) [Compound 23-14, (S or R)-3-[(7-amino-5,6,7,8-tetrahydronaphthalen-1-yl)methyl]-2-oxo-N-1,2,4-thiadiazol-5-yl-2,3-dihydro-1,3-benzoxazole-6-sulfonamide]
[1]
  IC50: 75 nM
[2]
  ratio of Nav 1.5:Nav 1.7 potency, determined by PatchXpress measurement: 393

## C[C@H](c1cccc2c1CC(N)CC2)n1c(=O)oc2cc(S(=O)(=O)Nc3ncns3)c(F)cc21 (single isomer, unassigned) [Compound 23-25, (R or S)-3-[(1R)-1-(7-amino-5,6,7,8-tetrahydronaphthalen-1-yl)ethyl]-5-fluoro-2-oxo-N-1,2,4-thiadiazol-5-yl-2,3-dihydro-1,3-benzoxazole-6-sulfonamide]
[1]
  IC50: 15 nM
[2]
  ratio of Nav 1.5:Nav 1.7 potency, determined by PatchXpress measurement: 203

## NC1CCc2cccc(Cn3c(=O)oc4cc(S(=O)(=O)Nc5ncns5)c(F)cc43)c2C1 (single isomer, unassigned) [Compound 23-27, (S or R)-3-[(7-amino-5,6,7,8-tetrahydronaphthalen-1-yl)methyl]-5-fluoro-2-oxo-N-1,2,4-thiadiazol-5-yl-2,3-dihydro-1,3-benzoxazole-6-sulfonamide]
[1]
  IC50: 6 nM
[2]
  ratio of Nav 1.5:Nav 1.7 potency, determined by PatchXpress measurement: 29

## O=c1oc2cc(S(=O)(=O)Nc3nccs3)c(F)cc2n1Cc1cccc2c1CNCC2F (single isomer, unassigned) [Compound 43-27, (R or S)-5-fluoro-3-[(4-fluoro-1,2,3,4-tetrahydroisoquinolin-8-yl)methyl]-2-oxo-N-1,3-thiazol-2-yl-2,3-dihydro-1,3-benzoxazole-6-sulfonamide]
[1]
  IC50: 106 nM
[2]
  ratio of Nav 1.5:Nav 1.7 potency, determined by PatchXpress measurement: 282

## O=c1oc2cc(S(=O)(=O)Nc3nccs3)c(F)cc2n1Cc1cccc2c1CNCC2F (single isomer, unassigned) [Compound 43-28, (S or R)-5-fluoro-3-[(4-fluoro-1,2,3,4-tetrahydroisoquinolin-8-yl)methyl]-2-oxo-N-1,3-thiazol-2-yl-2,3-dihydro-1,3-benzoxazole-6-sulfonamide]
[1]
  IC50: 120 nM
[2]
  ratio of Nav 1.5:Nav 1.7 potency, determined by PatchXpress measurement: 684

## O=c1oc2cc(S(=O)(=O)Nc3ncns3)c(F)cc2n1Cc1ccccc1 [Compound 11-7, 3-benzyl-5-fluoro-2-oxo-N-1,2,4-thiadiazol-5-yl-2,3-dihydro-1,3-benzoxazole-6-sulfonamide]
[1]
  IC50: 545 nM
[2]
  ratio of Nav 1.5:Nav 1.7 potency, determined by PatchXpress measurement: 55

## O=c1oc2cc(S(=O)(=O)Nc3ncns3)c(F)cc2n1C[C@H]1C[C@@H]1I [Compound 11-9, 5-fluoro-3-{[(1R,2S)-2-iodocyclopropyl]methyl}-2-oxo-N-1,2,4-thiadiazol-5-yl-2,3-dihydro-1,3-benzoxazole-6-sulfonamide]
[1]
  IC50: 301 nM
[2]
  ratio of Nav 1.5:Nav 1.7 potency, determined by PatchXpress measurement: 56

## O=c1oc2cc(S(=O)(=O)Nc3ncns3)c(F)cc2n1CC1CC1c1ccccc1 (centres unmarked) [Compound 11-10, 5-fluoro-2-oxo-3-[(2-phenylcyclopropyl)methyl]-N-1,2,4-thiadiazol-5-yl-2,3-dihydro-1,3-benzoxazole-6-sulfonamide]
[1]
  IC50: 44 nM
[2]
  ratio of Nav 1.5:Nav 1.7 potency, determined by PatchXpress measurement: 123

## Cn1cc2cccc(Cn3c(=O)oc4cc(S(=O)(=O)Nc5ncns5)c(F)cc43)c2n1 [Compound 11-11, 5-fluoro-3-[(2-methyl-2H-indazol-7-yl)methyl]-2-oxo-N-1,2,4-thiadiazol-5-yl-2,3-dihydro-1,3-benzoxazole-6-sulfonamide]
[1]
  IC50: 490 nM
[2]
  ratio of Nav 1.5:Nav 1.7 potency, determined by PatchXpress measurement: 81

## O=c1oc2cc(S(=O)(=O)Nc3ncns3)c(F)cc2n1Cc1cccc2cncn12 [Compound 11-12, 5-fluoro-3-(imidazo[1,5-a]pyridin-5-ylmethyl)-2-oxo-N-1,2,4-thiadiazol-5-yl-2,3-dihydro-1,3-benzoxazole-6-sulfonamide]
[1]
  IC50: 81 nM
[2]
  ratio of Nav 1.5:Nav 1.7 potency, determined by PatchXpress measurement: 368

## O=c1oc2cc(S(=O)(=O)Nc3ncns3)c(F)cc2n1Cc1cccc2c1C1CC1C=C2 (centres unmarked) [Compound 11-13, 3-(1a,7b-dihydro-1H-cyclopropa[a]naphthalen-7-ylmethyl)-5-fluoro-2-oxo-N-1,2,4-thiadiazol-5-yl-2,3-dihydro-1,3-benzoxazole-6-sulfonamide]
[1]
  IC50: 49 nM
[2]
  ratio of Nav 1.5:Nav 1.7 potency, determined by PatchXpress measurement: 50

## CC(c1cccc(-c2ccnn2C)c1)n1c(=O)oc2cc(S(=O)(=O)Nc3ncns3)c(F)cc21 (centres unmarked) [Compound 13-10, 5-fluoro-3-{1-[3-(1-methyl-1H-pyrazol-5-yl)phenyl]ethyl}-2-oxo-N-1,2,4-thiadiazol-5-yl-2,3-dihydro-1,3-benzoxazole-6-sulfonamide]
[1]
  IC50: 63 nM
[2]
  ratio of Nav 1.5:Nav 1.7 potency, determined by PatchXpress measurement: 256

## O=c1oc2cc(S(=O)(=O)Nc3ncns3)c(F)cc2n1[C@H](CO)c1ccccc1 [Compound 13-12, 5-fluoro-3-[(1S)-2-hydroxy-1-phenylethyl]-2-oxo-N-1,2,4-thiadiazol-5-yl-2,3-dihydro-1,3-benzoxazole-6-sulfonamide]
[1]
  IC50: 422 nM
[2]
  ratio of Nav 1.5:Nav 1.7 potency, determined by PatchXpress measurement: > 71

## C[C@H](c1cccc2ccncc12)n1c(=O)oc2cc(S(=O)(=O)Nc3ncns3)ccc21 [Compound 14-7, (R)-3-(1-(isoquinolin-8-yl)ethyl)-2-oxo-N-(1,2,4-thiadiazol-5-yl)-2,3-dihydrobenzo[d]oxazole-6-sulfonamide]
[1]
  IC50: 40 nM
[2]
  ratio of Nav 1.5:Nav 1.7 potency, determined by PatchXpress measurement: 749

## C[C@H](c1cccc2ccncc12)n1c(=O)oc2cc(S(=O)(=O)Nc3ncns3)c(F)cc21 [Compound 14-8, 5-fluoro-3-[(1R)-1-isoquinolin-8-ylethyl]-2-oxo-N-1,2,4-thiadiazol-5-yl-2,3-dihydro-1,3-benzoxazole-6-sulfonamid]
[1]
  IC50: 71 nM
[2]
  ratio of Nav 1.5:Nav 1.7 potency, determined by PatchXpress measurement: 114

Reference: US9273040B2 (Merck Sharp & Dohme Corp., priority 2011, dated 2016)
